# In patent US7396837B2, “Antitumoral analogs of lamellarins” (Pharma Mar, S.A.U., priority 2002, dated 2008):
# Read-outs that look alike come from different tables or passages of the source.
# How the values were obtained:
# Type in all cases: cell-based
# [1] = system: K-562; assay: SRB colorimetric cell growth inhibition assay, K-562; conditions: Homo sapiens
# Method in brief: (§1)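 Read-out: sulforhodamine B colorimetry of surviving cell mass after continued exposure of human tumour lines to sample. Values are means ± SD of three wells, expressed as GI, TGI or LC.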
# [2] = system: SKOV-3; assay: SRB colorimetric cell growth inhibition assay, SKOV-3; conditions: Homo sapiens
# From the text: (§2) A colorimetric type of assay, using sulforhodamine B (SRB) reaction has been adapted for a quantitative measurement of cell growth and viability (following the technique described by P. A. Skehan, et al., J. Natl. Cancer Inst. 1990, 82, 1107-1112).
# (§3) This form of assay employs 96 well cell culture microplates of 9 mm diameter (T. Mosmann et al., J. of Immunological Methods 1983, 65, 55-63; G. T. Faircloth et al., J. of Tissue and Culture Methods 1988, 11, 201-205).
# (§4) Most of the cell lines are obtained from American Type Culture Collection (ATCC) derived from different human cancer types.
# (§5) The values for mean +/− SD of data from triplicate wells are calculated. Some parameters for cellular responses can be calculated: GI=growth inhibition, TGI=total growth inhibition (cytostatic effect) and LC=cell killing (cytotoxic effect).
# [3] = system: A-549; assay: SRB colorimetric cell growth inhibition assay, A-549; conditions: Homo sapiens
# Method in brief: as §1
# [4] = system: LoVo; assay: SRB colorimetric cell growth inhibition assay, LoVo; conditions: Homo sapiens, LoVo; for GI50: read-out: GI50 LOVO; for CC50: read-out: LC50 LOVO; for IC (TGI): read-out: TGI LOVO
# Method in brief: as §1
# [5] = system: LNCaP; assay: SRB colorimetric cell growth inhibition assay, LNCaP; conditions: Homo sapiens, LNCaP; for GI50: read-out: GI50 LN-caP; for CC50: read-out: LC50 LN-caP; for IC (TGI): read-out: TGI LN-caP
# Method in brief: as §1
# [6] = system: IGROV; assay: SRB colorimetric cell growth inhibition assay, IGROV; conditions: Homo sapiens, IGROV; for GI50: read-out: GI50 IGROV; for CC50: read-out: LC50 IGROV; for IC (TGI): read-out: TGI IGROV
# Method in brief: as §1
# [7] = system: SK-BR-3; assay: SRB colorimetric cell growth inhibition assay, SK-BR-3; conditions: Homo sapiens
# Method in brief: as §1
# [8] = system: SK-MEL-28; assay: SRB colorimetric cell growth inhibition assay, SK-MEL-28; conditions: Homo sapiens
# Method in brief: as §1
# [9] = system: DU-145; assay: SRB colorimetric cell growth inhibition assay, DU-145; conditions: Homo sapiens
# Method in brief: as §1
# [10] = system: PANC-1; assay: SRB colorimetric cell growth inhibition assay, PANC-1; conditions: Homo sapiens
# Method in brief: as §1
# [11] = system: IGROV-ET; assay: SRB colorimetric cell growth inhibition assay, IGROV-ET (ET-743 resistant); conditions: Homo sapiens; for GI50: read-out: GI50 IGROV-ET; for CC50: read-out: LC50 IGROV-ET; for IC (TGI): read-out: TGI IGROV-ET
# Method in brief: as §1
# [12] = system: LoVo-Dox; assay: SRB colorimetric cell growth inhibition assay, LoVo-Dox (MDR); conditions: Homo sapiens; for GI50: read-out: GI50 LOVO-DOX; for CC50: read-out: LC50 LOVO-DOX; for IC (TGI): read-out: TGI LOVO-DOX
# Method in brief: as §1
# [13] = system: HT-29; assay: SRB colorimetric cell growth inhibition assay, HT-29; conditions: Homo sapiens
# Method in brief: as §1
# [14] = SRB colorimetric cell growth inhibition assay, H-MEC-1; conditions: human, H-MEC-1, cell killing (cytotoxic effect), read-out: LC50 H-MEC-1
# From the text: as §2, §3, §4, §5
# [15] = system: H-MEC-1; assay: as above; conditions: Homo sapiens
# From the text: as §2, §3, §4, §5
# [16] = cell killing (cytotoxic effect)
# [17] = total growth inhibition (cytostatic effect)
compound,measurement,setting,value
COc1cc(-c2c3n(c4c(=O)oc5cc(O)c(OC)cc5c24)CCc2c-3cc(OC)c(OC)c2O)ccc1O [Compound 1],GI50,"[1]; K562, K-562, GI=growth inhibition, read-out: GI50 K-562",0.815 µM
same,CC50,"[1]; K562, K-562, cell killing (cytotoxic effect), read-out: LC50 K-562",2.97 µM
same,IC (TGI),"[1]; K562, K-562, total growth inhibition (cytostatic effect), read-out: TGI K-562",2.11 µM
same,GI50,"[2]; SK-OV-3, SKOV-3, GI=growth inhibition, read-out: GI50 SKOV-3",13.7 µM
same,LC50 (concentration causing 50% net cell killing),"[2]; SK-OV-3, SKOV-3, cell killing (cytotoxic effect), read-out: LC50 SKOV-3",18.8 µM
same,IC (TGI),"[2]; SK-OV-3, SKOV-3, total growth inhibition (cytostatic effect), read-out: TGI SKOV-3",18.8 µM
same,GI50,"[3]; A549, A-549, GI=growth inhibition, read-out: GI50 A-549",≥ 1.88 µM
same,CC50,"[3]; A549, A-549, cell killing (cytotoxic effect), read-out: LC50 A-549",≥ 1.88 µM
same,IC (TGI),"[3]; A549, A-549, total growth inhibition (cytostatic effect), read-out: TGI A-549",1.88 µM
same,GI50,[4]; GI=growth inhibition,11.8 µM
same,CC50,[4]; [16],18.8 µM
same,IC (TGI),[4]; [17],57.6 µM
same,GI50,"[5]; LN-caP, GI=growth inhibition",0.277 µM
same,CC50,"[5]; LN-caP, cell killing (cytotoxic effect)",7.85 µM
same,IC (TGI),"[5]; LN-caP, total growth inhibition (cytostatic effect)",1.44 µM
same,GI50,[6]; GI=growth inhibition,0.493 µM
same,CC50,[6]; [16],18.8 µM
same,IC (TGI),[6]; [17],1.76 µM
same,GI50,"[7]; SK-BR-3, SK-BR-3, GI=growth inhibition, read-out: GI50 SK-BR-3",2.37 µM
same,CC50,"[7]; SK-BR-3, SK-BR-3, cell killing (cytotoxic effect), read-out: LC50 SK-BR-3",18.8 µM
same,IC (TGI),"[7]; SK-BR-3, SK-BR-3, total growth inhibition (cytostatic effect), read-out: TGI SK-BR-3",10.9 µM
same,GI50,"[8]; SK-MEL-28, MEL-28, GI=growth inhibition, read-out: GI50 MEL-28",2.24 µM
same,CC50,"[8]; SK-MEL-28, MEL-28, cell killing (cytotoxic effect), read-out: LC50 MEL-28",11.3 µM
same,IC (TGI),"[8]; SK-MEL-28, MEL-28, total growth inhibition (cytostatic effect), read-out: TGI MEL-28",5.04 µM
same,GI50,"[9]; DU-145, DU-145, GI=growth inhibition, read-out: GI50 DU-145",8.24 µM
same,CC50,"[9]; DU-145, DU-145, cell killing (cytotoxic effect), read-out: LC50 DU-145",17 µM
same,IC (TGI),"[9]; DU-145, DU-145, total growth inhibition (cytostatic effect), read-out: TGI DU-145",11.8 µM
same,GI50,"[10]; PANC-1, PANC-1, GI=growth inhibition, read-out: GI50 PANC-1",2.2 µM
same,CC50,"[10]; PANC-1, PANC-1, cell killing (cytotoxic effect), read-out: LC50 PANC-1",18.8 µM
same,IC (TGI),"[10]; PANC-1, PANC-1, total growth inhibition (cytostatic effect), read-out: TGI PANC-1",7.94 µM
same,GI50,"[11]; IGROV-ET, GI=growth inhibition",0.444 µM
same,CC50,"[11]; IGROV-ET, cell killing (cytotoxic effect)",18.8 µM
same,IC (TGI),"[11]; IGROV-ET, total growth inhibition (cytostatic effect)",1.2 µM
same,GI50,"[12]; LOVO-DOX, GI=growth inhibition",0.801 µM
same,CC50,"[12]; LOVO-DOX, cell killing (cytotoxic effect)",18.8 µM
same,IC (TGI),"[12]; LOVO-DOX, total growth inhibition (cytostatic effect)",7.13 µM
same,GI50,"[13]; HT-29, HT-29, GI=growth inhibition, read-out: GI50 HT-29",≥ 18.8 µM
same,CC50,"[13]; HT-29, HT-29, cell killing (cytotoxic effect), read-out: LC50 HT-29",18.8 µM
same,IC (TGI),"[13]; HT-29, HT-29, total growth inhibition (cytostatic effect), read-out: TGI HT-29",18.8 µM
same,LC50 (concentration giving 50% net cell killing),[14]; H-MEC-1 cells,5.72 µM
same,GI50,"[15]; HMEC-1, H-MEC-1, GI=growth inhibition, read-out: GI50 H-MEC-1",0.606 µM
same,IC (TGI),"[15]; HMEC-1, H-MEC-1, total growth inhibition (cytostatic effect), read-out: TGI H-MEC-1",1.38 µM
COc1cc(-c2c3c4cc(OC)c(O)cc4oc(=O)c3n3ccc4c(O)c(OC)c(OC)cc4c23)ccc1O [Compound 2],GI50,"[1]; K562, read-out: GI50 K-562",0.117 µM
same,CC50,"[1]; K562, read-out: LC50 K-562",18.9 µM
same,IC (TGI),"[1]; K562, read-out: TGI K-562",2.25 µM
same,GI50,"[2]; SK-OV-3, read-out: GI50 SKOV-3",0.14 µM
same,LC50 (concentration causing 50% net cell killing),"[2]; SK-OV-3, read-out: LC50 SKOV-3",≥ 18.9 µM
same,IC (TGI),"[2]; SK-OV-3, read-out: TGI SKOV-3",5.1 µM
same,GI50,"[3]; A549, read-out: GI50 A-549",0.674 µM
same,CC50,"[3]; A549, read-out: LC50 A-549",18.9 µM
same,IC (TGI),"[3]; A549, read-out: TGI A-549",18.9 µM
same,GI50,[4],0.398 µM
same,CC50,[4],16 µM
same,IC (TGI),[4],3.02 µM
same,GI50,[5],0.0727 µM
same,CC50,[5],1.44 µM
same,IC (TGI),[5],0.398 µM
same,GI50,[6],0.88 µM
same,CC50,[6],≥ 18.9 µM
same,IC (TGI),[6],5.17 µM
same,GI50,"[7]; SK-BR-3, read-out: GI50 SK-BR-3",0.314 µM
same,CC50,"[7]; SK-BR-3, read-out: LC50 SK-BR-3",≥ 18.8 µM
same,IC (TGI),"[7]; SK-BR-3, read-out: TGI SK-BR-3",2.36 µM
same,GI50,"[8]; SK-MEL-28, read-out: GI50 MEL-28",0.302 µM
same,CC50,"[8]; SK-MEL-28, read-out: LC50 MEL-28",≥ 18.9 µM
same,IC (TGI),"[8]; SK-MEL-28, read-out: TGI MEL-28",3.66 µM
same,GI50,"[9]; DU-145, read-out: GI50 DU-145",0.064 µM
same,CC50,"[9]; DU-145, read-out: LC50 DU-145",≥ 18.9 µM
same,IC (TGI),"[9]; DU-145, read-out: TGI DU-145",0.14 µM
same,GI50,"[10]; PANC-1, read-out: GI50 PANC-1",0.988 µM
same,CC50,"[10]; PANC-1, read-out: LC50 PANC-1",18.9 µM
same,IC (TGI),"[10]; PANC-1, read-out: TGI PANC-1",6.97 µM
same,GI50,[11],1.98 µM
same,CC50,[11],≥ 18.9 µM
same,IC (TGI),[11],8.12 µM
same,GI50,[12],0.604 µM
same,CC50,[12],18.9 µM
same,IC (TGI),[12],3.83 µM
same,GI50,"[13]; HT-29, read-out: GI50 HT-29",8.31 µM
same,CC50,"[13]; HT-29, read-out: LC50 HT-29",18.9 µM
same,IC (TGI),"[13]; HT-29, read-out: TGI HT-29",18.9 µM
same,LC50 (concentration giving 50% net cell killing),[14],≥ 18.9 µM
same,GI50,"[15]; HMEC-1, read-out: GI50 H-MEC-1",0.665 µM
same,IC (TGI),"[15]; HMEC-1, read-out: TGI H-MEC-1",18.9 µM
